From patent US9951028B2, “Agricultural chemicals” (REDAG CROP PROTECTION LTD, priority 2013, dated 2018)

What was measured:
[1] = test system: garden cress, Lepidium sativum; experiment: Herbicidal efficacy screen, potter tower spray, necrosis assessed; type: in vivo
Protocol: (§1) Compounds 22, 23 and 24 were screened for herbicidal efficacy against target plants: garden cress, Lepidium sativum, common chickweed, Stellaria media, and white mustard […] alba Plants were obtained as seeds and were grown to the 2-4 true leaf stage. Plants were grown under laboratory conditions, individually in seed trays. Each plant (in an approximately 3 cm diameter plug) was then detached from the tray for spraying. The compounds were screened at a range of five concentrations, diluted in acetone and TweenTM. A carrier only control was also conducted. Treatments were applied directly onto the plants, using a potter tower, at a specified application rate. One plant of each species was sprayed using a potter tower. The 3 different types of plants were placed on a 10 cm diameter platform directly beneath the potter sprayer and sprayed simultaneously. The growth of the plants and any Phytotoxicity effects were then assessed at intervals over 21 days, according to EPPO guideline PP1/135. Five replicas were performed for each treatment, for each species. In the tables below C represents a percentage increase in necrosis relative to the control of 0.1-50; B represents a percentage inhibition of 50-80; and A represents a percentage inhibition of 80-100.

[2] = test system: common chickweed, Stellaria media; experiment: as above; type: in vivo
Protocol: as §1

[3] = 50 g/ha, day 4 post application
[4] = 50 g/ha, day 5 post application
[5] = 50 g/ha, day 7 post application
[6] = 50 g/ha, day 10 post application
[7] = 100 g/ha, day 1 post application
[8] = 100 g/ha, day 2 post application
[9] = 100 g/ha, day 3 post application
[10] = 100 g/ha, day 4 post application
[11] = 100 g/ha, day 5 post application
[12] = 100 g/ha, day 7 post application
[13] = 100 g/ha, day 10 post application
[14] = 200 g/ha, day 1 post application
[15] = 200 g/ha, day 2 post application
[16] = 200 g/ha, day 3 post application
[17] = 200 g/ha, day 4 post application
[18] = 200 g/ha, day 5 post application
[19] = 200 g/ha, day 7 post application
[20] = 200 g/ha, day 10 post application

CC(C)N(C)S(=O)(=O)NCc1cc(-n2c(=O)cc(C(F)(F)F)n(C)c2=O)c(F)cc1Cl [Compound 23, 1-[4-Chloro-2-fluoro-5-[[(isopropyl(methyl)sulfamoyl)amino]methyl]phenyl]-3-methyl-2,6-dioxo-4-(trifluoromethyl)pyrimidine]
Average of necrosis [1, 3]: C (C represents a percentage increase in necrosis relative to the control of 0.1-50) | Average of necrosis [1, 4]: B (B represents a percentage inhibition of 50-80) | Average of necrosis [1, 5]: B (B represents a percentage inhibition of 50-80) | Average of necrosis [1, 6]: B (B represents a percentage inhibition of 50-80) | Average of necrosis [1, 7]: C (C represents a percentage increase in necrosis relative to the control of 0.1-50) | Average of necrosis [1, 8]: C (C represents a percentage increase in necrosis relative to the control of 0.1-50) | Average of necrosis [1, 9]: C (C represents a percentage increase in necrosis relative to the control of 0.1-50) | Average of necrosis [1, 10]: C (C represents a percentage increase in necrosis relative to the control of 0.1-50) | Average of necrosis [1, 11]: B (B represents a percentage inhibition of 50-80) | Average of necrosis [1, 12]: B (B represents a percentage inhibition of 50-80) | Average of necrosis [1, 13]: B (B represents a percentage inhibition of 50-80) | Average of necrosis [1, 14]: C (C represents a percentage increase in necrosis relative to the control of 0.1-50) | Average of necrosis [1, 15]: B (B represents a percentage inhibition of 50-80) | Average of necrosis [1, 16]: B (B represents a percentage inhibition of 50-80) | Average of necrosis [1, 17]: B (B represents a percentage inhibition of 50-80) | Average of necrosis [1, 18]: B (B represents a percentage inhibition of 50-80) | Average of necrosis [1, 19]: B (B represents a percentage inhibition of 50-80) | Average of necrosis [1, 20]: B (B represents a percentage inhibition of 50-80) | Average of necrosis ([2]; 12.5 g/ha, day 1 post application): C (C represents a percentage increase in necrosis relative to the control of 0.1-50) | Average of necrosis ([2]; 12.5 g/ha, day 2 post application): C (C represents a percentage increase in necrosis relative to the control of 0.1-50) | Average of necrosis ([2]; 12.5 g/ha, day 3 post application): C (C represents a percentage increase in necrosis relative to the control of 0.1-50) | Average of necrosis ([2]; 12.5 g/ha, day 4 post application): C (C represents a percentage increase in necrosis relative to the control of 0.1-50) | Average of necrosis ([2]; 12.5 g/ha, day 5 post application): B (B represents a percentage inhibition of 50-80) | Average of necrosis ([2]; 12.5 g/ha, day 7 post application): B (B represents a percentage inhibition of 50-80) | Average of necrosis ([2]; 12.5 g/ha, day 10 post application): A (A represents a percentage inhibition of 80-100) | Average of necrosis ([2]; 25 g/ha, day 1 post application): C (C represents a percentage increase in necrosis relative to the control of 0.1-50) | Average of necrosis ([2]; 25 g/ha, day 2 post application): C (C represents a percentage increase in necrosis relative to the control of 0.1-50) | Average of necrosis ([2]; 25 g/ha, day 3 post application): C (C represents a percentage increase in necrosis relative to the control of 0.1-50) | Average of necrosis ([2]; 25 g/ha, day 4 post application): C (C represents a percentage increase in necrosis relative to the control of 0.1-50) | Average of necrosis ([2]; 25 g/ha, day 5 post application): B (B represents a percentage inhibition of 50-80) | Average of necrosis ([2]; 25 g/ha, day 7 post application): B (B represents a percentage inhibition of 50-80) | Average of necrosis ([2]; 25 g/ha, day 10 post application): B (B represents a percentage inhibition of 50-80) | Average of necrosis ([2]; 50 g/ha, day 1 post application): C (C represents a percentage increase in necrosis relative to the control of 0.1-50) | Average of necrosis ([2]; 50 g/ha, day 2 post application): C (C represents a percentage increase in necrosis relative to the control of 0.1-50) | Average of necrosis ([2]; 50 g/ha, day 3 post application): C (C represents a percentage increase in necrosis relative to the control of 0.1-50) | Average of necrosis [2, 3]: C (C represents a percentage increase in necrosis relative to the control of 0.1-50) | Average of necrosis [2, 4]: B (B represents a percentage inhibition of 50-80) | Average of necrosis [2, 5]: B (B represents a percentage inhibition of 50-80) | Average of necrosis [2, 6]: B (B represents a percentage inhibition of 50-80) | Average of necrosis [2, 7]: C (C represents a percentage increase in necrosis relative to the control of 0.1-50) | Average of necrosis [2, 8]: C (C represents a percentage increase in necrosis relative to the control of 0.1-50) | Average of necrosis [2, 9]: C (C represents a percentage increase in necrosis relative to the control of 0.1-50) | Average of necrosis [2, 10]: C (C represents a percentage increase in necrosis relative to the control of 0.1-50) | Average of necrosis [2, 11]: B (B represents a percentage inhibition of 50-80) | Average of necrosis [2, 12]: B (B represents a percentage inhibition of 50-80) | Average of necrosis [2, 13]: A (A represents a percentage inhibition of 80-100) | Average of necrosis [2, 14]: C (C represents a percentage increase in necrosis relative to the control of 0.1-50) | Average of necrosis [2, 15]: C (C represents a percentage increase in necrosis relative to the control of 0.1-50) | Average of necrosis [2, 16]: C (C represents a percentage increase in necrosis relative to the control of 0.1-50) | Average of necrosis [2, 17]: C (C represents a percentage increase in necrosis relative to the control of 0.1-50) | Average of necrosis [2, 18]: B (B represents a percentage inhibition of 50-80) | Average of necrosis [2, 19]: B (B represents a percentage inhibition of 50-80) | Average of necrosis [2, 20]: B (B represents a percentage inhibition of 50-80)
